Test results: patent publication US20120034193A1, “TREATMENT OF NEUROTROPHIC FACTOR MEDIATED DISORDERS” (priority 2009, published 2012)

What was measured:
Acetylcholinesterase = Acetylcholinesterase (Homo sapiens, UniProt P22303); experiment: Enzyme activity assay; format: biochemical; conditions: sarsasapogenin 10 μM
Method: (§1) The enzyme activity modulation was investigated using the following method: Sarsasapogenin was incubated with each enzyme plus a specific substrate for each enzyme. After the incubation period the reaction was stopped and the reduction of the specific substrate or the increase in a specific product in the absence and presence of sarsasapogenin was measured and the percent inhibition of the reaction in the presence of sarsasapogenin was calculated. The amount of enzyme used, the incubation conditions, the substrate used and the method of quantification varied depending on each specific assay.

[1] = target: Choline acetyltransferase (Homo sapiens, UniProt P28329); experiment: Enzyme activity assay; format: biochemical; conditions: sarsasapogenin 100 μM
Method: as §1

[2] = Long term oral toxicity study, rats; format: in vivo; conditions: high doses, up to 26 week in rats
[3] = system: phosphorylated CREB (pCREB); experiment: Phosphorylated CREB in CHO cells (immunoblot); format: cell-based, Chinese hamster; conditions: 10 μM, 24 h, control 0.729 ± 0.112
Method: The CHO were incubated with DMSO (0.5%) or sarsasapogenin (10 μM) for 24 h. The cells were then washed with cold PBS, lysed in sodium dodecyl sulfate (SDS) buffer, boiled for 5 min and the protein content measured by the Bradford method. The samples were then separated on SDS polyacrylamide gels and transferred to PVDF (Bio-Rad) membrane. After exposure for 1 h in 5% skimmed milk powder, membranes were incubated overnight at 4° C. in primary antibody: mouse pCREB (Upsdate, 1:1000) and mouse β-actin (Santa Cruz, 1:1000). The membranes were then incubated in peroxidase conjugated secondary antibody (Wuhan Boster Biology Technology, China. 1:2000) for 1 h at room temperature and developed with ECL reagents (Pierce). Membranes were stripped by incubating in 2-mercaptoethanol (100 mM), SDS (2%), Tris HCl (62.5 mM) at pH 6.8 and 50° C. for 30 min Densitometric quantification of immunostaining was performed using Image J analysis system with an image analyzer (Gel Doc 2000, Bio-Rad). The relative amount of immunostaining of each band of pCREB was normalised to the β-actin band run in the same experiment and expressed as arbitrary units.

Acetyl CoA synthetase = experiment: Enzyme activity assay; format: biochemical, Yeast; conditions: sarsasapogenin 100 μM
Method: as §1

[4] = system: Transforming Growth Factor-β (TGF-β); experiment: Binding assay; set-up: species or system Mouse; conditions: smilagenin 1 μM
Method: (§2) The receptor binding was investigated using the following method: Sarsasapogenin was incubated with tissue or cell homogenate that expressed the receptor of interest and a known concentration a radiolabelled compound with affinity for the receptor of interest. After the incubation period the non-bound radiolabelled compound was removed and the amount of specific binding was quantified. The amount of specific binding in the presence and absence of sarsasapogenin were compared and the percent inhibition of the binding of the radiolabelled compound by sarsasapogenin was calculated. The source of the receptor, the incubation conditions, the radiolabelled compound used varied depending on each specific assay.
(§3) Using the same methods as described above, the binding of smilagenin (1 μM) to the receptors listed in Table 2 below, and the effect of smilagenin on the activity of the enzymes listed in Table 2 below, were investigated.

[5] = system: Platelet-Derived Growth Factor (PDGF); experiment: Binding assay; set-up: species or system Mouse; conditions: smilagenin 1 μM
Method: as §2, §3

Phorbol Ester = experiment: Binding assay; set-up: species or system Mouse; conditions: smilagenin 1 μM
Method: as §2, §3

[6] = system: dopamine transporter (DAT); experiment: Striatal DAT level in MPTP-lesioned mice ([I^125]-RTI binding), 60 days; format: in vivo, C57b1/6 RJ mice; conditions: 10 mg/kg/day oral, control 74.4, MPTP 23.4
Method: Seven-week old male C57b1/6 RJ mice (C57 mice) received daily injections 1-methyl-4-phenyl-1,2,3,6-tetrahydropyridine (MPTP, 25 mg/kg/day, i.p., for 5 consecutive days) and oral administration of smilagenin (10 mg/kg/day) or vehicle (hydroxylpropylmethylcellulose, HPMC 0.5% w/v containing tween-80 0.2% v/v) for 60 days after which time their brains were removed for quantification of striatal levels of GDNF and BDNF using an ELISA and of dopamine transporter (DAT) levels using [I^125]-RTI binding. DAT is a marker for neuronal damage to dopaminergic neurones.

[7] = system: dopamine transporter (DAT); experiment: Striatal DAT level in control and MPTP mice, 61 or 71 days of dosing; format: in vivo, C57 mice; conditions: 10 mg/kg/day oral
Method: In a similar experiment, 10-week old male C57 mice received daily injections of saline or MPTP (25 mg/kg/day, i.p.) for 5 consecutive days (days 1-5) and oral administration of smilagenin (10 mg/kg/day) or vehicle (HPMC 0.5% w/v containing tween-80 0.2% v/v) for 61 days (days […]) or 71 days (days 2-72) after which time their brains were removed for quantification of striatal levels of DAT, marker of the extent of neuronal damage to dopaminergic neurones

GDNF mRNA = GDNF mRNA in rat dopaminergic neurones following exposure to MPP+; format: cell-based; conditions: 10 μM after MPP+ 2 μM 48 h
Method: Rat dopaminergic neurones were prepared using a slightly modified previously described method (Brouard et al., Journal of Neuroscience, 1992, 12, pp. 1409-1415). After 5 days in culture MPP^+ (2 μM), a specific dopaminergic neurotoxin, or vehicle (saline) was added for 48 h. The culture medium was then replaced with fresh medium containing smilagenin (10 μM) or vehicle (DMSO, 0.25%) and the level of GDNF mRNA in the dopaminergic neurones was assessed after 10 min and 2, 24, 48 and 72 h by rt RT-PCR.

[8] = system: Glycine, Strychnine-Sensitive; experiment: Binding assay; set-up: species or system Rat; conditions: smilagenin 1 μM
BDNF mRNA = BDNF mRNA expression in rat cortical neurones after 48 h incubation (rt RT-PCR); format: cell-based; conditions: 10 μM, mean ± s.e.mean, n = 3
Method: In a separate experiment, rat cortical neurones were cultured by modification of a method previously described (Eckenstein and Sofroniew, Journal of Neuroscience, 1983, 3, pp. 2286-2291). On day 8, the culture medium was changed to a medium containing vehicle (DMSO, 0.5%) or smilagenin (10 μM) for 48 h and the level of BDNF mRNA in the cortical neurones was assessed by rt RT-PCR.

[9] = target: Nicotinic Acetylcholine α7, Bungarotoxin (Rattus norvegicus, UniProt Q05941); experiment: Binding assay; conditions: smilagenin 1 μM
Sequence of Nicotinic Acetylcholine α7, Bungarotoxin (Q05941 23-502): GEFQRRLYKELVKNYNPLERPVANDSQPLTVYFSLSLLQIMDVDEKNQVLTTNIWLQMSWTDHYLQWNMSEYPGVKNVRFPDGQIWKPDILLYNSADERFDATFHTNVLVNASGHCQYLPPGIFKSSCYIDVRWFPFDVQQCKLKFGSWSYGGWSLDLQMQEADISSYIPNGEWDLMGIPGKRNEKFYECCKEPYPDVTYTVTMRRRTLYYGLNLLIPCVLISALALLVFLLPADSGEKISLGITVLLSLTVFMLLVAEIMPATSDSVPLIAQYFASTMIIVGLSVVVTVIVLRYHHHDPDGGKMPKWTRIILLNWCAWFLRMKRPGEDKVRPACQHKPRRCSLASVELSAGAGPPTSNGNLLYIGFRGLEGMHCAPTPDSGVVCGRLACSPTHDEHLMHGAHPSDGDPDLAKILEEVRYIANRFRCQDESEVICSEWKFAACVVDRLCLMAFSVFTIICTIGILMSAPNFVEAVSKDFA

Sequence of Choline acetyltransferase (P28329 whole entry): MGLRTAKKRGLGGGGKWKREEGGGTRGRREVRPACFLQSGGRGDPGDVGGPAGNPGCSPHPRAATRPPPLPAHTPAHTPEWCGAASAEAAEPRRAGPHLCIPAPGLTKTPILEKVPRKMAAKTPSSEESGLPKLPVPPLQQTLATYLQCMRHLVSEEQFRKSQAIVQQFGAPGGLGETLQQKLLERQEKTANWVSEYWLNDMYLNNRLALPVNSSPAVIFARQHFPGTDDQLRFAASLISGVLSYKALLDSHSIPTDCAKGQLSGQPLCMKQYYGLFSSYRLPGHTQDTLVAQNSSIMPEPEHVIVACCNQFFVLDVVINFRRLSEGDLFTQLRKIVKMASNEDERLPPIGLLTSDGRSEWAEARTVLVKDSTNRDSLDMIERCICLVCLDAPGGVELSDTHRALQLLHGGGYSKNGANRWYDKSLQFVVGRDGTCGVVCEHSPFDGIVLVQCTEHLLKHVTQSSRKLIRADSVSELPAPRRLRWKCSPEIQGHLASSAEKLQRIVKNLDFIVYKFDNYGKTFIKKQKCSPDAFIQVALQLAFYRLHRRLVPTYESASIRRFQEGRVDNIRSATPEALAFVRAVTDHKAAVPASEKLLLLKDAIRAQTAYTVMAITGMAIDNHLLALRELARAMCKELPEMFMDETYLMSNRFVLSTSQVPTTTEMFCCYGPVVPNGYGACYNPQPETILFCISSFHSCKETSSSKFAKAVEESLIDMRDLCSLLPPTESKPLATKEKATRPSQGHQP
Sequence of Acetylcholinesterase (P22303 32-614): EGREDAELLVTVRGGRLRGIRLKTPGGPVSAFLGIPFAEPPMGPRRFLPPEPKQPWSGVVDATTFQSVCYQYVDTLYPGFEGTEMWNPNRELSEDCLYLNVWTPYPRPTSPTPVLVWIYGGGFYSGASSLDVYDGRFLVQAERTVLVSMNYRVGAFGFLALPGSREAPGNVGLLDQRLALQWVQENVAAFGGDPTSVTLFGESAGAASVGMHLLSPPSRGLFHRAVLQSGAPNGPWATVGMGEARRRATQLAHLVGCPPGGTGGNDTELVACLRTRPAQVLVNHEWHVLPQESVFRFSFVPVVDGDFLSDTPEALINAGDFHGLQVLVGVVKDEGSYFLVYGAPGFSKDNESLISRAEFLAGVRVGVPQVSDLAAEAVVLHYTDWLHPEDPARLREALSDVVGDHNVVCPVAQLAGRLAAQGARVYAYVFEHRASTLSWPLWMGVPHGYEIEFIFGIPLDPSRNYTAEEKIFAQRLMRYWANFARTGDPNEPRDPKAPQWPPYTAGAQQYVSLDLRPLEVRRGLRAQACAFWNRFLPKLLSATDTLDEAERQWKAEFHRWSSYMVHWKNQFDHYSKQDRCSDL

Row | Compound | Effect (%) (Acetylcholinesterase) | Effect (%) [1] | Long term toxicity [2] | Phosphorylated CREB (Arbitary units) [3] | Effect (%) (Acetyl CoA synthetase) | Effect (%) [4] | Effect (%) [5] | Effect (%) (Phorbol Ester) | DAT level ([I^125]-RTI binding in the striatum; nCi/g protein) [6] [nCi/g protein] | DAT level ([I^125]-RTI binding in the striatum; nCi/g protein) ([7]; MPTP mice, days 2-72) | DAT level ([I^125]-RTI binding in the striatum; nCi/g protein) ([7]; MPTP mice, days 12-72) | DAT level ([I^125]-RTI binding in the striatum; nCi/g protein) ([7]; control mice (no MPTP), days 2-72) [nCi/g protein] | Relative amount of GDNF mRNA (% of control at 0.167 h) (GDNF mRNA; smilagenin exposure 0.167 h) | Relative amount of GDNF mRNA (% of control at 0.167 h) (GDNF mRNA; smilagenin exposure 2 h) | Relative amount of GDNF mRNA (% of control at 0.167 h) (GDNF mRNA; smilagenin exposure 24 h) | Relative amount of GDNF mRNA (% of control at 0.167 h) (GDNF mRNA; smilagenin exposure 48 h) | Relative amount of GDNF mRNA (% of control at 0.167 h) (GDNF mRNA; smilagenin exposure 72 h) | Effect (%) [8] | Relative amount of BDNF mRNA (% of control) (BDNF mRNA) | Effect (%) [9]
1 | C[C@H]1CC[C@@]2(OC1)O[C@H]1C[C@H]3[C@@H]4CC[C@@H]5C[C@@H](O)CC[C@]5(C)[C@H]4CC[C@]3(C)[C@H]1[C@@H]2C [Sarsasapogenin, sarsasapogenin] | NS (NS = No significant response. Significance was taken as ≧30% stimulation or inhibition) | NS (NS = No significant response. Significance was taken as ≧30% stimulation or inhibition) | without showing any signs of toxicity or adverse events | 1.342 ± 0.084^++ Arbitary units | NS (NS = No significant response. Significance was taken as ≧30% stimulation or inhibition) | – | – | – | – | – | – | – | – | – | – | – | – | – | – | –
2 | C[C@@H]1CC[C@@]2(OC1)O[C@H]1C[C@H]3[C@@H]4CC[C@@H]5C[C@@H](O)CC[C@]5(C)[C@H]4CC[C@]3(C)[C@H]1[C@@H]2C [Smilagenin, smilagenin] | – | – | – | – | – | NS (NS = No significant response. Significance was taken as ≧30% stimulation or inhibition) | NS (NS = No significant response. Significance was taken as ≧30% stimulation or inhibition) | NS (NS = No significant response. Significance was taken as ≧30% stimulation or inhibition) | 69.7 ± 8.8 | 256.2 ± 21.4^++++ nCi/g protein | 280.3 ± 18.3^++++ nCi/g protein | 406.2 ± 21.8 | 119.9 ± 19.8 % of control at 0.167 h | 581.6 ± 66.3 % of control at 0.167 h | 3319.1 ± 830.3 % of control at 0.167 h | 2185.3 ± 304.1 % of control at 0.167 h | 1413.5 ± 352.1 % of control at 0.167 h | NS (NS = No significant response. Significance was taken as ≧30% stimulation or inhibition) | 103.9 ± 6.5 % of control | NS (NS = No significant response. Significance was taken as ≧30% stimulation or inhibition)
